Activity calls are given as the source filed them. No cut-off for these calls is given here.
Experiments:
[1] = system: CT26; assay: cells; conditions: Mus musculus, CT26, 72 h
Description: Cytotoxicity against mouse CT26 cells assessed as inhibition of cell growth incubated for 72 hrs by MTT assay

[2] = system: SK-OV-3; assay: cells; conditions: Homo sapiens, SK-OV-3, 72 h
Description: Cytotoxicity against human SK-OV-3 cells assessed as inhibition of cell growth incubated for 72 hrs by MTT assay

[3] = molecular target: T1, von Hippel-Lindau disease tumor suppressor/Nicotinamide phosphoribosyltransferase (Mus musculus) (UniProt Q99KQ4+P40338); assay: (§1) PROTAC activity at VHL/NAMPT in mouse CT26 cells assessed as induction of intracellular NAMPT degradation incubated for 24 hrs by Western blot analysis; assay type: cell-based
T1 sequence (P40338 whole entry, looked up): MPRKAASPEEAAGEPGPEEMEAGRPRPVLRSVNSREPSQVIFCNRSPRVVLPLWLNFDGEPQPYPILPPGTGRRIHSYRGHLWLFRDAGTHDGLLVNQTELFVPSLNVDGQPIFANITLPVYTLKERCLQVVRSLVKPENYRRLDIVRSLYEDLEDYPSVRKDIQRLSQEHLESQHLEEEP
T1 sequence (Q99KQ4 whole entry, looked up): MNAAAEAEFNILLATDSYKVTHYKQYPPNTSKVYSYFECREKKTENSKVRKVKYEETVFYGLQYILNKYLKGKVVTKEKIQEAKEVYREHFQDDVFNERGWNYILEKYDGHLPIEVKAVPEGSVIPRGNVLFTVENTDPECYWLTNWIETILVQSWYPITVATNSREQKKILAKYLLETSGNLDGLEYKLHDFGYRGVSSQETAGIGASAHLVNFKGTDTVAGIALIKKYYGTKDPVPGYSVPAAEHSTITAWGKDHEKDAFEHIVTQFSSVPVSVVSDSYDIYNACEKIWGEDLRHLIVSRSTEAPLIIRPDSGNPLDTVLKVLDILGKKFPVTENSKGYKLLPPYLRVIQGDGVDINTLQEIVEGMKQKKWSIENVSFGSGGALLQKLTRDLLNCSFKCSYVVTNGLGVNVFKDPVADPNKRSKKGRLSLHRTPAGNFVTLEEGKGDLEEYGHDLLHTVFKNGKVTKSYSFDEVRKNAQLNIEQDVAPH

[4] = molecular target: von Hippel-Lindau disease tumor suppressor/Nicotinamide phosphoribosyltransferase (Mus musculus, UniProt Q99KQ4+P40338); assay: as §1; assay type: cell-based
Chain of von Hippel-Lindau disease tumor suppressor/Nicotinamide phosphoribosyltransferase (Mus musculus, UniProt Q99KQ4+P40338) (Q99KQ4 whole entry): as the sequence (Q99KQ4 whole entry, looked up) above
Chain of von Hippel-Lindau disease tumor suppressor/Nicotinamide phosphoribosyltransferase (Mus musculus, UniProt Q99KQ4+P40338) (P40338 whole entry): as the sequence (P40338 whole entry, looked up) above

[5] = molecular target: T1, von Hippel-Lindau disease tumor suppressor/Nicotinamide phosphoribosyltransferase (Mus musculus); assay: PROTAC activity at VHL/NAMPT in mouse CT26 cells assessed as induction of extracellular NAMPT degradation incubated for 24 hrs by immunoblot analysis; assay type: cell-based; conditions: dose 0.1-5 µM
[6] = molecular target: T1, von Hippel-Lindau disease tumor suppressor/Nicotinamide phosphoribosyltransferase (Mus musculus); assay: PROTAC activity at VHL/NAMPT in mouse CT26 cells assessed as induction of intracellular NAMPT degradation incubated for 24 hrs by immunoblot analysis; assay type: cell-based; conditions: dose 0.1-5 µM
[7] = Tmax in male Sprague-Dawley rat at 14 mg/kg, ip measured after 24 hrs by LC/MS-MS analysis; assay type: ADME, organism-based; conditions: in vivo
[8] = Cmax in male Sprague-Dawley rat at 14 mg/kg, ip measured after 24 hrs by LC/MS-MS analysis; assay type: ADME, organism-based; conditions: in vivo
[9] = AUC (0 to 24 hrs) in male Sprague-Dawley rat at 14 mg/kg, ip measured after 24 hrs by LC/MS-MS analysis; assay type: ADME, organism-based; conditions: in vivo
[10] = Half-life in male Sprague-Dawley rat at 14 mg/kg, ip measured after 24 hrs by LC/MS-MS analysis; assay type: ADME, organism-based; conditions: in vivo
[11] = Apparent volume of distribution during terminal phase in male Sprague-Dawley rat at 14 mg/kg, ip measured after 24 hrs by LC/MS-MS analysis; assay type: ADME, organism-based; conditions: in vivo, read-out: Vz/F
[12] = system: CT26; assay: Antitumor activity against mouse CT26 cells implanted in immunocompetent female BALB/c mouse model assessed as reduction in tumor growth at 20 mg/kg, ip administered for 30 days; assay type: functional, organism-based; conditions: time 30.0 day
[13] = system: CT26; assay: Antitumor activity against mouse CT26 cells implanted in immunocompetent female BALB/c mouse model assessed as reduction in tumor size at 20 mg/kg, ip administered for 30 days; assay type: functional, organism-based; conditions: time 30.0 day
[14] = Toxicity in immunocompetent female BALB/c mouse implanted with mouse CT26 cells assessed as body weight loss at 20 mg/kg, ip administered for 30 days; assay type: organism-based; conditions: in vivo, 720 h, time 30 day
[15] = Toxicity in immunocompetent BALB/c mouse implanted with mouse CT26 cells assessed as change in spleen size at 20 mg/kg, ip administered for 30 days relative to control group; assay type: organism-based; conditions: in vivo, 720 h, time 30 day
[16] = Toxicity in immunocompetent BALB/c mouse implanted with mouse CT26 cells assessed as decrease in spleen index at 20 mg/kg, ip administered for 30 days relative to FK866; assay type: organism-based; conditions: in vivo, 720 h, time 30 day
[17] = Toxicity in immunocompetent BALB/c mouse implanted with mouse CT26 cells assessed as effect on liver histopathology at 20 mg/kg, ip administered for 30 days by H and E staining based analysis; assay type: organism-based; conditions: in vivo, 720 h, time 30 day
[18] = system: CT26; assay: Antitumor activity against mouse CT26 cells implanted in immunocompetent female BALB/c mouse model assessed as reduction in IL-6 expression at 20 mg/kg, ip administered for 30 days by ELISA; assay type: functional, organism-based; conditions: time 30.0 day
[19] = system: CT26; assay: Antitumor activity against mouse CT26 cells implanted in immunocompetent female BALB/c mouse model assessed as reduction in TNF-alpha expression at 20 mg/kg, ip administered for 30 days by ELISA; assay type: functional, organism-based; conditions: time 30.0 day
[20] = system: MIA PaCa-2; assay: cells; conditions: Homo sapiens, MIA PaCa-2, 72 h
Description: Cytotoxicity against human MIA PaCa-2 cells assessed as inhibition of cell growth incubated for 72 hrs by MTT assay

[21] = molecular target: T2, von Hippel-Lindau disease tumor suppressor/Nicotinamide phosphoribosyltransferase (Homo sapiens, UniProt P43490+P40337); assay: PROTAC activity at VHL/NAMPT in human SK-OV-3 cells assessed as induction of intracellular NAMPT degradation incubated for 24 hrs by Western blot analysis relative to control; assay type: cell-based
T2 sequence (P43490 whole entry): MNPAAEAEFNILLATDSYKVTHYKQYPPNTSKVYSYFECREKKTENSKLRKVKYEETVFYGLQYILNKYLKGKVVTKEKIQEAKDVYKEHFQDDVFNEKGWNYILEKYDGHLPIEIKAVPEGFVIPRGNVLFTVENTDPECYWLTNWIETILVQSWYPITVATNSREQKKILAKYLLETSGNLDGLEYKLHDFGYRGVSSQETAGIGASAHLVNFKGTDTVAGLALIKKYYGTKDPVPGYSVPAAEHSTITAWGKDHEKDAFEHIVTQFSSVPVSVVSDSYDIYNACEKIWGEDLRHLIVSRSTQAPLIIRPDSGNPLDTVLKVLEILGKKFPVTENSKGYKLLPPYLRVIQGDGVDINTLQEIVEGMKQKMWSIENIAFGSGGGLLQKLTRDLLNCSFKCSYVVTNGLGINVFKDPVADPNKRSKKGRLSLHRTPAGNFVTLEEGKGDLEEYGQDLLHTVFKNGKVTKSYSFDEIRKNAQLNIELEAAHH
T2 sequence (P40337 whole entry): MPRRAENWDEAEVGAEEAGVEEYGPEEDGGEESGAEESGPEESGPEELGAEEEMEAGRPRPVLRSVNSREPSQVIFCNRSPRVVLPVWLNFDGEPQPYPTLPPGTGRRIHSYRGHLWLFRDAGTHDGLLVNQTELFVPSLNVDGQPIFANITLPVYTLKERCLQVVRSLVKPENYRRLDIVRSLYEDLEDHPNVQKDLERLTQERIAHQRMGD

[22] = molecular target: T2, von Hippel-Lindau disease tumor suppressor/Nicotinamide phosphoribosyltransferase; assay: PROTAC activity at VHL/NAMPT in human MKN-45 cells assessed as induction of intracellular NAMPT degradation incubated for 24 hrs by Western blot analysis relative to control; assay type: cell-based
[23] = molecular target: T1, von Hippel-Lindau disease tumor suppressor/Nicotinamide phosphoribosyltransferase (Mus musculus); assay: PROTAC activity at VHL/NAMPT in mouse CT26 cells assessed as induction of extracellular NAMPT degradation at 0.1 to 5 uM incubated for 24 hrs by Western blot analysis; assay type: cell-based; conditions: dose 0.1-5 µM
[24] = molecular target: Nicotinamide phosphoribosyltransferase (Homo sapiens) (UniProt P43490); conditions: SK-OV-3, dose 100.0 nM, time 24.0 hrs
Chain of Nicotinamide phosphoribosyltransferase (Homo sapiens) (P43490 whole entry, looked up): as the sequence (P43490 whole entry) above

[25] = Induction of NAMPT degradation in immunocompetent female BALB/c mouse implanted with mouse CT26 cells assessed as reduction in intracellular NAMPT level in tumor by measuring fold change at 20 mg/kg, ip administered for 30 days by Western blot analysis (reference value: 1.00); assay type: functional; conditions: time 30 day
[26] = Toxicity in immunocompetent BALB/c mouse implanted with mouse CT26 cells assessed as punctate necrosis in liver at 20 mg/kg, ip administered for 30 days by H and E staining based analysis; assay type: organism-based; conditions: in vivo, 720 h, time 30 day
[27] = molecular target: Nicotinamide phosphoribosyltransferase (Mus musculus) (UniProt Q99KQ4); assay: Induction of NAMPT degradation in mouse CT26 cells at 0.1 to 5 uM incubated for 24 hrs by Western blot analysis; assay type: cell-based; conditions: dose 0.1-5 µM
Chain of Nicotinamide phosphoribosyltransferase (Mus musculus) (Q99KQ4 whole entry, looked up): as the sequence (Q99KQ4 whole entry, looked up) above

In the case of `Cc1ncsc1-c1ccc([C@@H](C)NC(=O)[C@@H]2C[C@@H](O)CN2C(=O)[C@@H](NC(=O)COCCOCCOCCOCCNC(=O)c2ccc(CN3CCN(S(=O)(=O)c4ccc(NC(=S)NCc5cccnc5)cc4)CC3)cc2)C(C)(C)C)cc1`, the IC50 [1] is reported as > 100000 nM and the IC50 [2] is reported as 9930 nM.

With `Cc1ncsc1-c1ccc([C@@H](C)NC(=O)[C@H]2C[C@H](O)CN2C(=O)[C@H](NC(=O)COCCOCCOCCNC(=O)c2ccc(C(=O)N3CCC(CCCCNC(=O)/C=C/c4cccnc4)CC3)cc2)C(C)(C)C)cc1` the Activity [3] was “Dose-Dependent Effect”, the DC50 [4] was 520 nM and the Activity [5] was “Dose-Dependent Effect”. The Activity [6] was “Dose-Dependent Effect”, the Tmax [7] was 1 h and the Cmax [8] was 147 ng/mL. The AUC(0-t) at 24 h [9] was 919 ng·h/mL, the half-life [10] was 22 h and the Vd/F [11] was 0.483 L/kg. For the same compound, the Activity [12] was “Active”, the Activity [13] was “Active” and the Activity [14] was “Non-Toxic”. The Activity [15] was “Non-Toxic”, the Activity [16] was “Toxic” and the Activity [17] was “Non-Toxic”. The Activity [18] was “Active”, the Activity [19] was “Active” and the IC50 [1] was 25800 nM. For the same compound, the IC50 [2] was 1020 nM and the IC50 [20] was 4 nM.

In the case of `Cc1ncsc1-c1ccc([C@H](C)NC(=O)[C@@H]2C[C@@H](O)CN2C(=O)[C@@H](NC(=O)COCCOCCOCCOCCNC(=O)c2ccc(C(=O)N3CCC(CCCCNC(=O)/C=C/c4cccnc4)CC3)cc2)C(C)(C)C)cc1`, the DC50 [21] is reported as 25 nM, the DC50 [22] is reported as 6.4 nM and the Activity [3] is reported as “Dose-Dependent Effect”. The DC50 [4] was 920 nM, the Activity [23] was “Active” and the inhibition [24] was “Active”. For the same compound, the IC50 [1] was 23100 nM, the IC50 [2] was 890 nM and the IC50 [20] was 4 nM.

In the case of `O=C(/C=C/c1cccnc1)NCCCCC1CCN(C(=O)c2ccccc2)CC1` [DAPORINAD], the “fold change (FC)” value [25] is reported as 1.04, the Activity [14] is reported as “Non-Toxic” and the Activity [15] is reported as “Toxic”. The Activity [26] was “Toxic”, the IC50 [1] was 39 nM and the IC50 [2] was 6 nM.

In the case of `Cc1ncsc1-c1ccc([C@H](C)NC(=O)[C@H]2C[C@H](O)CN2C(=O)[C@@H](NC(=O)COCCOCCOCCNC(=O)c2ccc(C(=O)N3CCC(CCCCNC(=O)/C=C/c4cccnc4)CC3)cc2)C(C)(C)C)cc1`, the Activity [27] is reported as “inactive”.
